Tests used:
[1] = maximal tolerated dose of Rhodamine 123 delivered intravenously in man; assay type: in vivo; details: 70 kg patient, each injection
Experimental: Because inhibitors of oxidative phosphorylation are toxic to a subject in the doses needed for efficacy via the systemic route, such inhibitors have been largely overlooked for effective treatment of conditions such as cancer. […] It is also known that the maximal tolerated dose of Rhodamine 123 delivered intravenously in man is 95 mg/m^2. For a 70 kg patient, the tolerated dose of systemically delivered rhodamine is about 150 mg for each injection.

[2] = test system: tumour; assay: local delivery of rhodamine on an implant; assay type: in vivo; details: delivering 40 or 50 mg locally on implant
Description: Furthermore, the lethal dose can be greatly exceeded. […] Such a dose, delivered systemically, would require 100 g of rhodamine, more than 1000 times the lethal dose.

[3] = test system: prostate tumours; details: clinical trial, cited from earlier work

In the case of rhodamine, the “tolerated dose of systemically delivered rhodamine” value [1] is given as “about 150 mg”, the tumour outcome [2] is given as “leads to tumour death” and the “effect on prostate tumours” value ([3]; maximum non-lethal systemic doses) is given as “did not shown any significant effect”. The “accumulation in the prostate of the patients” value ([3]; systemic delivery) was “accumulation was confirmed”.

Reference: patent US20070292478A1 (priority 2004, published 2007)
